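1) Cells in 96-well plates. 2) Compound, 48 h, 5 concentrations. 3) Linear interpolation between surrounding doses. 4) Unreached endpoint = highest concentration. GI50 is the concentration that inhibits growth by half. The concentration for full growth arrest is given as TGI.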 Bounds are passed on as bounds.

Common to all, as to assay: NCI-60 cell line screen, 48 h
Assay [1] concerns NCI-H460 lung.
In assay [2] the test system is SF-539 CNS.
Assay [3] has as its system HCC-2998 colon.
Assay [4] concerns IGROV1 ovarian.
For assay [5], the system named is ACHN renal.
In assay [6] the test system is KM12 colon.
Assay [7] concerns SF-295 CNS.
In assay [8] the test system is K-562 leukemia.

`O=C(Nc1ccc(S(=O)(=O)NC2CCCCCC2)cc1)C(c1ccccc1)S(=O)(=O)c1ccc(F)cc1` (configuration not stated): the GI50 in assay [1] is 0.0367 µM; in assay [2], 0.389 µM; in assay [3], 0.868 µM; in assay [4], 0.237 µM; in assay [5], 0.153 µM; in assay [6], 0.321 µM. Also, the GI50 in assay [7] was 0.349 µM. Further, the TGI amounted to 1.1 µM in assay [1]; 1.88 µM in assay [2]; 2.35 µM in assay [3]; 2.89 µM in assay [4]; 0.491 µM in assay [5]; 1.96 µM in assay [6]. In assay [7], this compound came in with a TGI of 2.92 µM.

As to `Cc1ccc(-c2cc(/C=N/O)on2)cc1`, the GI50 in assay [1] is 63.6 µM; in assay [2], more than 100 µM; in assay [4], 63.8 µM; in assay [5] it was 54.8 µM; in assay [6], 35.6 µM; in assay [7], 33.9 µM. In addition, the TGI in assay [1], in assay [2], in assay [4], in assay [5], in assay [6] and in assay [7] was more than 100 µM throughout.

As for `CON`, the GI50 in assay [1], in assay [2], in assay [3], in assay [4], in assay [5] and in assay [6] was more than 100 µM throughout. Moreover, the GI50 in assay [7] was more than 100 µM. Also, the TGI in assay [1], in assay [2], in assay [3], in assay [4], in assay [5] and in assay [6] was more than 100 µM each time. The compound also returned a TGI in assay [7] of more than 100 µM.

As for `Cc1sc(/N=C2/NC(=O)CS2)nc1-c1nc(/N=C2/NC(=O)CS2)sc1C`, the GI50 was 23.4 µM in assay [1]; more than 50 µM in assay [2]; more than 50 µM in assay [4]; more than 50 µM in assay [5]; 28.9 µM in assay [6]; more than 50 µM in assay [7]. In addition, the GI50 in assay [8] is 26.8 µM. Further, the TGI in assay [1], in assay [2], in assay [4], in assay [5], in assay [6] and in assay [7] was more than 50 µM each time. Besides, the TGI in assay [8] is more than 50 µM.

On to `NC(=O)NC(=O)C1CCCCC1C(=O)O` (configuration not stated), for which the TGI in assay [1], in assay [2], in assay [4], in assay [5], in assay [6] and in assay [7] was more than 100 µM each time. Also, the TGI in assay [8] is more than 100 µM.

On to `CN(C)CCOc1nc2ccccc2c2c1-c1ccc(Cl)cc1C2=O`, for which the GI50 in assay [1] was 0.365 µM; in assay [2], 1.07 µM; in assay [3], 0.97 µM; in assay [4], 0.444 µM; in assay [5], 0.419 µM; in assay [6], 0.441 µM. For the same compound, the GI50 in assay [7] was 1.53 µM. Besides, the TGI in assay [1] amounted to 1.3 µM; in assay [2], 2.59 µM; in assay [3], 2.49 µM; in assay [4] it was 1.73 µM; in assay [5], 1.72 µM; in assay [6] it was 1.57 µM. The same compound came in with a TGI in assay [7] of more than 100 µM.

As for `CN(NC(=O)CC(=O)NN(C)C(=S)c1ccc(Cl)cc1)C(=S)c1ccc(Cl)cc1`, the GI50 in assay [1] was 4.38 µM; in assay [2], 27.6 µM; in assay [4], 19.8 µM; in assay [5], 18.1 µM; in assay [6] it was 16.9 µM; in assay [7], 3.14 µM. In addition, the GI50 in assay [8] was 16.4 µM. For the same compound, the TGI in assay [1] was 63.7 µM; in assay [2], more than 100 µM; in assay [4], more than 100 µM; in assay [5], 85.8 µM; in assay [6], 66.4 µM; in assay [7] it was 19.4 µM. In assay [8], this compound yielded a TGI of more than 100 µM.

As to `CCNCCNc1cc(-c2cccc(C(F)(F)F)c2)c(C#N)c2nc3ccccc3n12`, the GI50 in assay [1] was 0.457 µM; in assay [2], 1.7 µM; in assay [3] it was 1.65 µM; in assay [4], 1.72 µM; in assay [5], 1.32 µM; in assay [6] it was 1.63 µM. For the same compound, the GI50 in assay [7] is 1.79 µM. For the same compound, the TGI in assay [1] worked out at 1.81 µM; in assay [2], 3.23 µM; in assay [3], 3.13 µM; in assay [4] it was 3.49 µM; in assay [5], 2.9 µM; in assay [6], 3.13 µM. This compound registered a TGI in assay [7] of 3.39 µM.

Consider `CCCCCc1c(C)[nH]c(/C=c2\[nH]/c(=C3/C=c4ccccc4=N3)cc2OC)c1C`, for which the GI50 in assay [1] was 0.0614 µM; in assay [2], 0.0604 µM; in assay [3], 0.0452 µM; in assay [4], 0.265 µM; in assay [5], 0.122 µM; in assay [6], 0.0511 µM. Moreover, in assay [7], the GI50 is 0.0902 µM. Besides, the TGI in assay [1] was 11.2 µM; in assay [2] it was 0.659 µM; in assay [3] it was 5.88 µM; in assay [4], 5.25 µM; in assay [5] it was 1.29 µM; in assay [6], more than 100 µM. This compound also yielded a TGI in assay [7] of 0.452 µM.

(Values after PubChem BioAssay (NCI).)
